Calls of active or inactive are those of the source. The rule behind the calls is not given here.
What was measured:
MCF7 = assay: Antiproliferative activity against human MCF7 cells assessed as inhibition of cell proliferation at 10 to 100 uM; format: functional
BaF3 = assay: Inhibition of Bcr-Abl (unknown origin) expressed in BaF3 cells at 30 uM; format: cell-based; conditions: Homo sapiens
[1] = target: L-lactate dehydrogenase (Homo sapiens) (UniProt V9HWB9); assay: Inhibition of LDH (unknown origin) at 10 uM by biochemical assay
HepG2 = assay: Antiproliferative activity against human HepG2 cells assessed as inhibition of cell proliferation at 10 to 100 uM; format: functional
A549 = assay: Antiproliferative activity against human A549 cells assessed as inhibition of cell proliferation at 10 to 100 uM; format: functional
[2] = Antiproliferative activity against human BGC823 cells assessed as inhibition of cell proliferation at 10 to 100 uM; format: functional, BGC-823
[3] = Retention factor of the compound on TLC over silica gel; format: physicochemical

SMILES | inhibition (INH) (MCF7) [%] | inhibition (BaF3) | inhibition [1] | inhibition (INH) (HepG2) [%] | inhibition (INH) (A549) [%] | inhibition (INH) [2] [%] | Rf [3]
C[C@@H]1[C@@H](O)C(=O)C2=C(CCC2)[C@]12C(=O)N(C)c1ccccc12 | <10 | inactive | inactive | <10 | <10 | <10 | 0.8
CC1=C(O)C(=O)C2=C(CCC2)[C@]12C(=O)N(C)c1ccccc12 | <10 | 15% | inactive | <10 | <10 | <10 | 0.67
